Measured values from BindingDB's records for doi:10.1016/s1074-5521(98)90632-9 (Merck Research Laboratories, 1998).

Assays:
[1] = biological target: T1, Beta-lactamase (Bacteroides fragilis, UniProt Q8KZP2); assay: Metallo-Beta-Lactamase Assay; conditions: pH 7; 37 °C
T1 sequence (Q8KZP2 whole entry): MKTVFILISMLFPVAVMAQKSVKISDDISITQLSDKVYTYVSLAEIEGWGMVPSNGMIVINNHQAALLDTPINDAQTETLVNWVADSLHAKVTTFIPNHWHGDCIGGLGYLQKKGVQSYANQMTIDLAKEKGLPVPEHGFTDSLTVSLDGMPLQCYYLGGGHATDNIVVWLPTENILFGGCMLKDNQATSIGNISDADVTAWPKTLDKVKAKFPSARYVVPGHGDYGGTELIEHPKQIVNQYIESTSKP
Text: Enzyme inhibition assay by biphenyl tetrazoles (BPTS)using metallo-beta-lactamase.

[2] = biological target: T2, Dipeptidase 1 (Homo sapiens, UniProt P16444); assay: Dehydropeptidase I Assay; conditions: pH 7; 37 °C
T2 sequence (P16444 whole entry): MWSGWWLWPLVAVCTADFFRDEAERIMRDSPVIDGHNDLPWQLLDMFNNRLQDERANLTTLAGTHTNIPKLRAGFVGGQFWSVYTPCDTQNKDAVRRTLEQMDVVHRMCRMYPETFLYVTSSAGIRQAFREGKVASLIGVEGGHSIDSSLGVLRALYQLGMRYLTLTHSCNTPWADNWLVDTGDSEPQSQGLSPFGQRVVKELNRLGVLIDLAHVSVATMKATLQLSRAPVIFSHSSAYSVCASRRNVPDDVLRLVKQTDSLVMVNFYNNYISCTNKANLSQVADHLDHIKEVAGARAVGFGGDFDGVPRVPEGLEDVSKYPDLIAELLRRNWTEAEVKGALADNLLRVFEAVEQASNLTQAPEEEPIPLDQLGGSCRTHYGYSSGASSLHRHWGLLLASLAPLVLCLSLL
Text: Enzyme inhibition assay by biphenyl tetrazoles (BPTS)using dehydropeptidase 1 (DPH-1).

## CCCCc1nc2ccc(O)cc2c(=O)n1Cc1ccc(-c2ccccc2-c2nnn[nH]2)cc1
[1]
  IC50: 1.9 µM
[2]
  IC50: > 100 µM

## CCCc1nc(CC)c(C=O)n1Cc1ccc(-c2ccccc2-c2nnn[nH]2)cc1
[1]
  IC50: 7 µM
[2]
  IC50: 190 µM

## Cc1ccc(-c2ccccc2-c2nnn[nH]2)cc1 [L-158,507]
[1]
  IC50: 160 µM
[2]
  IC50: > 1000 µM

## CCCc1nc2ccc(Cl)nc2n1Cc1ccc(-c2ccccc2-c2nnn[nH]2)cc1 [L-158-678]
[1]
  IC50: 3.5 µM
[2]
  IC50: 240 µM

## Cc1ccnc2c1nc(C(C)C)n2Cc1ccc(-c2ccccc2-c2nnn[nH]2)cc1 [L-158-817]
[1]
  IC50: 1.8 µM
[2]
  IC50: > 100 µM

## CCCCc1nc2c(c(=O)n1Cc1ccc(-c3ccccc3-c3nnn[nH]3)cc1)SCC2 [L-159,906]
[1]
  IC50: 0.4 µM
[2]
  IC50: > 100 µM

## C1=Cc2c(c3ccccc3n2Cc2ccc(-c3ccccc3-c3nnn[nH]3)cc2)CC1 [L-161,189]
[1]
  IC50: 0.3 µM
[2]
  IC50: 120 µM

## c1ccc(-c2nnn[nH]2)c(-c2ccc(Cn3cnc4ccccc43)cc2)c1 [L-808,509]
[1]
  IC50: 110 µM
[2]
  IC50: > 500 µM

## c1ccc(-c2ccccc2-c2nn[nH]n2)cc1 [L-809,022]
[1]
  IC50: 860 µM
[2]
  IC50: > 1000 µM

## C1=Cc2[nH]c3cc(OCc4ccc(-c5ccccc5-c5nnn[nH]5)cc4)ccc3c2CC1 [L-809,339]
[1]
  IC50: 42 µM
[2]
  IC50: > 100 µM

## Oc1ccc2c3c(n(Cc4ccc(-c5ccccc5-c5nnn[nH]5)cc4)c2c1)C=CCC3 [L-809,370]
[1]
  IC50: 6 µM
[2]
  IC50: > 100 µM

## c1ccc(-c2nnn[nH]2)c(-c2ccc(Cn3cnc4cccnc43)cc2)c1 [L-809-558]
[1]
  IC50: 42 µM
[2]
  IC50: > 250 µM

## Cc1nc2ccccc2n1Cc1ccc(-c2ccccc2-c2nnn[nH]2)cc1 [L-809-559]
[1]
  IC50: 4 µM
[2]
  IC50: > 250 µM
